Patent US5874528A, “Binding peptides which interact with ligand growth factors of the epidermal growth factor receptor and erbB-2 receptor” (Georgetown University, priority 1994, dated 1999)
Ends that are not written are not given here.

How the values were obtained:
MDA-MB-468 cells = assay: soft agar colony formation (anchorage-independent growth) of MDA-MB-468 cells; format: cell-based, human; settings: 10 nM, positive control
MDA-MB-453 cells = assay: soft agar colony formation (anchorage-independent growth) of MDA-MB-453 cells; format: cell-based, human; settings: for Number of Colonies (± SD): MDA-MB 453 cells, untreated 942 ± 120
Protocol: (§1) MDA-MB-453 (A), or SK-Br-3 cells (B) were plated in 35 mm tissue culture dishes (Costar). A bottom layer of 1 ml IMEM containing 0.6% Bacto-agar (Difco), 2 mM glutamine, and 10% FCS was prepared. Top layers contained 2×10^4 cells and samples in 0.4% Bacto-agar, 10% FCS IMEM. Samples were sterilized prior to plating by filtration using 0.22 μM Millex CU millipore filter. The legend of peptide symbols in A is identical to the one in FIG. 2. The following concentrations were used in B: 5×10^-12 M gp30, 2×10^-12 M p75, 60 μM RL2, and 127 nM p185^erbB-2 extracellular domain (ECD) as positive control. Experiments were carried out in FCS that had been tested for optimal cloning efficiency. Cells were incubated 7-9 days in humidified 5% CO2 atmosphere at 37° C. Colonies larger than 60-μm were counted using a Baush and Lomb Stem Cell Colony Counter (Artex Systems Corp.). Each group was assayed in triplicate. Experiments were performed three times.
*Cells were treated as indicated. The monoclonal antibody 4D5 (kindly
provided by Genentech, CA) and the RL2 peptide were used as positive
controls. Soft agar cloning assays were carried out as previously
described (Lupu, et al., Proc. Natl. Acad. Sci. USA, 87:2287-91, 1992).
Colonies larger than 69 μM were counted using a Baush & Lomb Stem Cell
Colony Counter (Artex Systems Corp.). Each group was assayed in
triplicate. Experiments were performed three times with similar results.

EGFR [1] = assay: in vitro tyrosine phosphorylation assay in MDA-MB-468 cells; format: cell-based, human
Protocol: (§2) Cells were grown in 24-well plates (Costar) to 70% confluence in 5% FCS IMEM and serum-starved 24 hours prior to assays. Cells were then treated for 20 minutes at 37° C. with RL1 or RL2 with and without gp30 (at concentrations given below), as indicated on Figure panels, washed once with serum-free IMEM, and lysed at 4° C. for 10 minutes with a lysis buffer containing SDS (Emprotech). Total cellular proteins were subjected to 4-20% SDS-PAGE, and blotted onto Hybond-ECL membranes (Amersham). Membranes were blocked with tris-buffered saline [5% BSA, 0.5% Tween 20] and probed with 1 μg/ml phosphotyrosine monoclonal antibody (UBI) in tris-buffered saline [0.5% BSA, 0.5% Tween 20]. Immune complexes were detected using the ECL-western blotting kit (Amersham) as indicated by the manufacturer. Densitometric analyses were performed using a SAMBA 4000 system (Dynatech Laboratories). The values obtained were corrected for background and expressed as control percentages. Differences were considered significant when effects more than 10% versus controls occurred.
Upper panels correspond to MDA-MB-453 cells. […] Lower panels correspond to MDA-MB-468 cells. […] Lanes 1 to 4 correspond to increasing concentrations of RL2 (left panels), or RL1 (right panels) peptides. 1: 0.06 μM; 2: 0.6 μM; 3: 6 μM; 4: 60 μM. Experiments were repeated four times with similar results.
FIG. 6B: EGFR Tyrosine Phosphorylation assays were performed using MDA-MB-468 cells, as described for FIG. 3. […]
(§3) To further characterize RL2 blocking effects, we analyzed the homologous peptides for their ability to prevent the tyrosine phosphorylation induced by gp30 either in p185^erbB-2 or EGFR, or both of them. […] (Densitometric analyses of autoradiograms were performed using a SAMBA 4000 system (Dynatech Laboratories). The values obtained were corrected for background and expressed as control percentages. Differences were considered significant when effects more than 10% versus controls occurred.)

p185^erbB-2 [2] = assay: p185^erbB-2 binding competition assay with iodinated 4D5 on SK-Br-3 cells; parameters: species or system human; settings: 1 nM iodinated 4D5, 3 hours at 4° C., read-out: B/T 50, displacement of the binding of iodinated 4D5 to SK-Br-3
Protocol: SK-Br-3 cells were placed in 48-well plates (Costar) in 5% fetal calf serum (FCS), IMEM (Biofluids).Cells were washed and incubated for 30 minutes at 37° C. with binding buffer [1 mg/ml BSA, 10 mM Hepes, 20 mM glutamine, DMEM-F12 pH 7.4]. Binding studies were performed for 3 hours at 4° C. On SK-Br-3 cells, 1 nM iodinated 4D5 was incubated with various concentrations of P1 (.largecircle.), P2 (.circle-solid.), P3 (Δ), P4 (.tangle-solidup.), RL1 (.quadrature.), and RL2 (.box-solid.) unlabeled peptides (A), or with unlabeled 4D5 (B). After incubation, cells were washed three times with binding buffer, and solubilized with 1% SDS. Unspecific binding of iodinated 4D5 was determined with an excess (100 nM) of unlabeled 4D5. Each group was assayed in triplicate. Experiments were performed three times with similar results.
To explore whether the RL2 peptide could specifically represent either a p185^erbB-2 or EGFR-extracellular binding site, we tested the aforementioned peptides in p185^erbB-2 or EGFR binding competition assays. Since iodinated gp30 was not available, p185^erbB-2 and EGFR competition assays were performed using iodinated monoclonal antibody 4D5 and iodinated EGF respectively. p185^erbB-2 monoclonal antibodies 4D5 and 7C2 were provided by Genentech, Inc., South San Francisco, Calif. […]

EGFR [3] = assay: EGFR binding competition assay with iodinated EGF in MDA-MB-468 cells; parameters: species or system human; settings: 1 nM iodinated EGF, peptide 0.6, 6, 60 μM
Protocol: FIG. 6A: EGFR binding competition assays were performed in MDA-MB-468 cells. In brief, 150,000 cells/well were plated in 24 well plate. The binding assays were performed as described by Lonardo, et al., Mol. Cell. Biol, 2:992 (1990). In brief, 1 nM iodinated EGF (Amersham) was incubated with increasing concentrations of RL2 or RL2-K (0.6, 6, 60 μM, respectively). Increasing concentrations of unlabelled EGF were used as control, as shown in the insert. Each group was assayed in triplicate. Values are from three experiments and expressed as the mean percent of control cases.
To explore whether the RL2 peptide could specifically represent either a p185^erbB-2 or EGFR-extracellular binding site, we tested the aforementioned peptides in p185^erbB-2 or EGFR binding competition assays. Since iodinated gp30 was not available, p185^erbB-2 and EGFR competition assays were performed using iodinated monoclonal antibody 4D5 and iodinated EGF respectively. p185^erbB-2 monoclonal antibodies 4D5 and 7C2 were provided by Genentech, Inc., South San Francisco, Calif.
Among the peptides tested, only RL2 displaced in a dose-dependent manner (B/T 50: 8 μM) the binding of iodinated 4D5 to SK-Br-3 (FIG. 2).

p185^erbB-2 [4] = assay: in vivo phosphorylation assay and phosphoaminoacid analysis in MDA-MB-453 cells; format: cell-based, human
Protocol: MDA-MB-453 cells were grown in 35 mm dishes (Costar) to 70% confluence in 5% FCS IMEM. Cells were washed twice with PO4 free DMEM (Gibco), and then incubated for 3 hours at 37° C. with [^32 P]-orthophosphate (Amersham; 1.0 mCi/ml in each dish). Cells were then treated for 10 minutes at 37° C. with samples: control, 60 μM RL2, 50×10^-12 M gp30, or 50×10^-12 M gp30 plus 60 μM RL2. All samples were preincubated 30 minutes at 37° C. Cells were washed twice with PBS, and lysed at 4° C. for 10 minutes with a lysis buffer containing 1% Triton X-100, and kinase, protease and phosphatase inhibitors as described (Frackelton, et al., J. Biol. Chem., 259:7909 (1984)). After centrifugation at 10,000× g for 15 minutes at 4° C., tyrosinephosphorylated proteins were isolated from supernatants by microbath affinity chromatography on the phosphotyrosine monoclonal antibody 1G2 (provided by Dr. A. R. Frakelton) as previously described (Frackelton, et al., J. Biol Chem., 259:7909 (1984); and Beitz, et al., Proc. Natl. Acad. Sci. USA, 88:2021 (1991)), eluted with 1 mM phenylphosphate in PBS pH 7.4, and purified further by immunoprecipitation with p185^erbB-2 monoclonal antibody Ab-3 (Oncogene Science) adsorbed on protein A-Sepharose. […]

monoclonal antibody 4D5 = assay: binding of iodinated RL2 to a 4D5 affinity column
Protocol: First, RL2 peptide was iodinated using Iodogen, and purified with high-pressure liquid chromatography (HPLC); the specific activity was 26,000 cpm/μg peptide. […] 3×10^6 cpm of iodinated RL2 were loaded onto a protein A-sepharose column coupled with 4D5 (coupling percentage: 98.5%). Elutions were performed with increasing concentrations of MgCl2 from 1 to 5M (see Table 1). The specific elution marked as * on Table I was obtained at 2M MgCl2. The flow-through contained only background levels of radioactivity.

SK-Br-3 cells = assay: soft agar colony formation of SK-Br-3 cells with gp30 or p75; format: cell-based, human; settings: 5×10^-12 M gp30 or 2×10^-12 M p75; 60 μM RL2, 127 nM ECD
Protocol: as §1
To illustrate RL2 antiproliferative effects as a blocking action on the p185^erbB-2 ligand-mediated effects, we tested this peptide and the ECD of p185^erbB-2 on the anchorage-independent growth of SK-Br-3 cells in the presence of stimulating concentrations of either gp30 or p75 proteins, the latter known to interact exclusively with p185^erbB-2 (Lupu, et al., Proc. Natl. Acad. Sci. USA, 89:2287-91 (1992)). […]

p185^erbB-2 [5] = assay: in vitro tyrosine phosphorylation assay in MDA-MB-453 cells; format: cell-based, human; settings: 0.06 to 60 μM, gp30 50 pM
Protocol: as §2, with “Densitometric analyses were performed using a SAMBA 4000 system (Dynatech Laboratories).” left out, “Differences were considered significant when effects more than 10% versus controls occurred.” left out
as §3

For “EGF: epidermal growth factor, positive control”, the “response of MDA-MB-468 cell anchorage-independent growth” value (MDA-MB-468 cells) was “did respond”.
With LGLRSLRE [RL2] the “inhibition of MDA-MB-453 cell anchorage-independent growth” value (MDA-MB-453 cells; 6-60 μM) was 72%, the “Number of Colonies (± SD)” value (MDA-MB-453 cells; 6 μM) was 245 ± 46 and the “Number of Colonies (± SD)” value (MDA-MB-453 cells; 60 μM) was 123 ± 21. For the same substance, the “inhibition of gp30-stimulated level of EGFR tyrosine phosphorylation” value (EGFR [1]; 60 μM, gp30 50 pM) was “not the gp30-stimulated level”, the “inhibition of baseline level of EGFR tyrosine phosphorylation” value (EGFR [1]; 60 μM, no gp30) was 71% and the “effect on EGF-induced tyrosine phosphorylation of EGFR” value (EGFR [1]; EGF 1.68 nM, peptide 0.6, 6 and 60 μM) was “no effect”. The IC50 (p185^erbB-2 [2]) was 8 µM, the “effect on binding of iodinated EGF to the EGFR” value (EGFR [3]) was “absence of an effect” and the “decrease of p185^erbB-2 tyrosine level of phosphorylation, presence of gp30-stimulation” value (p185^erbB-2 [4]; 60 μM RL2, 50×10^-12 M gp30) was 26%. The “decrease of p185^erbB-2 tyrosine level of phosphorylation, absence of gp30-stimulation” value (p185^erbB-2 [4]; 60 μM RL2, [32P]-orthophosphate labelling) was 50%, the “radioactivity, flow through” value (monoclonal antibody 4D5; input 3 × 10^6 cpm iodinated RL2, flow through) was 2.6 × 10^5 cpm and the “radioactivity, wash” value (monoclonal antibody 4D5; input 3 × 10^6 cpm iodinated RL2, wash) was 2.54 × 10^5 cpm. For the same substance, the “binding of iodinated peptide to 4D5-affinity column” value (monoclonal antibody 4D5; protein A-sepharose column coupled with 4D5) was “specifically bind to a 4D5-affinity column”, the “inhibiting effects on anchorage-independent growth of SK-Br-3 cells in presence of gp30 or p75” value (SK-Br-3 cells) was “fully reversed” and the “inhibition of gp30-stimulated level of p185^erbB-2 tyrosine phosphorylation” value (p185^erbB-2 [5]) was 80%.
In the case of “p185^erbB-2 ECD: p185^erbB-2 extracellular domain (ECD), positive control”, the “inhibiting effects on anchorage-independent growth of SK-Br-3 cells in presence of gp30 or p75” value (SK-Br-3 cells) is reported as “fully reversed”.
